In PubChem BioAssay (NCI) one finds TGI and GI50 data, which are given here for 19 compounds.

Test systems include EKVX NSCLC; HT29 colon; LOX IMVI melanoma; MCF7 breast; MOLT-4 leukemia; OVCAR-3 ovarian; SF-268 CNS; SF-539 CNS; SNB-19 CNS; UO-31 renal.
Assay in all cases: NCI-60 cell line screen, 48 h

The structures appear in SMILES notation. Values joined by “and” are separate entries in the source; they are usually repeats but may differ in a detail not shown here. Identical values can stand only once.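 96-well plates; 48 h exposure; 5 concentrations. Endpoints by linear interpolation between flanking doses. Not reached: highest tested concentration assigned. At the GI50, growth is halved. TGI marks complete inhibition of growth.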

As for `N=C(N)C(N=Nc1ccccc1)C(=N)N` (configuration not stated), the TGI in the experiment with EKVX NSCLC was greater than 100 µM; with HT29 colon, greater than 100 µM; in the experiment with LOX IMVI melanoma, greater than 100 µM; with MCF7 breast it was greater than 100 µM; with MOLT-4 leukemia, 99.3 µM; in the experiment with OVCAR-3 ovarian, greater than 100 µM. The TGI was greater than 100 µM in the experiment on SF-268 CNS, 38.5 µM in the experiment with SF-539 CNS, greater than 100 µM in the experiment on SNB-19 CNS and greater than 100 µM in the experiment on UO-31 renal.
Turning to `CN1CCN(CCCOc2ccc3ncnc(Nc4ccc(Oc5cccc(C(F)(F)F)c5)c(Cl)c4)c3c2)CC1`, the GI50 in the experiment on EKVX NSCLC is 1.16 µM; in the experiment on HT29 colon, 1.13 µM; with LOX IMVI melanoma, 1.3 µM; in the experiment with MCF7 breast, 1.38 µM; with MOLT-4 leukemia, 1.83 µM; with OVCAR-3 ovarian it was 1.09 µM. Moreover, the GI50 was 1.44 µM with SF-268 CNS, 1.6 µM in the experiment with SF-539 CNS, 1.83 µM in the experiment with SNB-19 CNS and 1.21 µM with UO-31 renal. For the same compound, the TGI stood at 3.4 µM in the experiment on EKVX NSCLC; 3.63 µM with HT29 colon; 2.81 µM in the experiment with LOX IMVI melanoma; 3.06 µM with MCF7 breast; 4.8 µM with MOLT-4 leukemia; 2.56 µM with OVCAR-3 ovarian. Also, the TGI was 3.12 µM in the experiment with SF-268 CNS, 3 µM in the experiment on SF-539 CNS, 3.8 µM in the experiment on SNB-19 CNS and 2.44 µM with UO-31 renal.
As for `C=C1C(C2(C)C=CC(=O)OC3(C)COC(=O)CC32)C(OC=O)C(OC(=O)C(O)C(C)CC)C2(C)C(c3ccoc3)CC(OC(C)=O)C12O` (configuration not stated), the TGI was greater than 100 µM in the experiment with EKVX NSCLC; greater than 100 µM with HT29 colon; 88.2 µM with LOX IMVI melanoma; greater than 100 µM with MCF7 breast; greater than 100 µM in the experiment with MOLT-4 leukemia; greater than 100 µM with OVCAR-3 ovarian. Further, the TGI in the experiment with SF-268 CNS, with SF-539 CNS, in the experiment with SNB-19 CNS and in the experiment with UO-31 renal was greater than 100 µM throughout.
As for `CC(=O)OCCC[C@@H]1C(=C(C)C)CCC2[C@@]1(C)CC[C@@]1(C)C[C@](C)(CCC=C(C)C)CC[C@]21C` (some centres not stated), the TGI in the experiment with EKVX NSCLC, in the experiment with HT29 colon, with MCF7 breast, in the experiment with MOLT-4 leukemia, with OVCAR-3 ovarian and in the experiment with SF-268 CNS was greater than 100 µM in each case. The TGI in the experiment on SF-539 CNS was greater than 100 µM; in the experiment on SNB-19 CNS, greater than 100 µM; in the experiment on UO-31 renal, 46.1 µM.
As to `O=C1CC(n2cccc2)c2cc(Br)sc21` (configuration not stated), the TGI is greater than 100 µM in the experiment on EKVX NSCLC; greater than 100 µM in the experiment with HT29 colon; greater than 100 µM with LOX IMVI melanoma; greater than 100 µM in the experiment with MCF7 breast; 87 µM in the experiment with MOLT-4 leukemia; greater than 100 µM in the experiment on OVCAR-3 ovarian. In addition, the TGI in the experiment on SF-268 CNS, in the experiment with SF-539 CNS, in the experiment with SNB-19 CNS and with UO-31 renal was greater than 100 µM in each case.
`S=C(NCCCCCCNC(=S)Nc1c2ccccc2nc2ccccc12)Nc1c2ccccc2nc2ccccc12`: the TGI in the experiment on EKVX NSCLC is greater than 100 µM; in the experiment with HT29 colon, greater than 100 µM; in the experiment on LOX IMVI melanoma, greater than 100 µM; in the experiment with MCF7 breast, greater than 100 µM; in the experiment on MOLT-4 leukemia, greater than 94.3 µM; in the experiment on OVCAR-3 ovarian, greater than 100 µM. For the same compound, the TGI with SF-268 CNS is greater than 100 µM; in the experiment on SF-539 CNS, 99.9 µM; in the experiment with SNB-19 CNS, greater than 100 µM; in the experiment with UO-31 renal, greater than 100 µM.
For `CCCCC1Cc2cc(OC)ccc2-c2nc3cc(OC)ccc3n21` (configuration not stated) (tested in a mixture with another compound), the TGI in the experiment on EKVX NSCLC was found to be 25.2 µM; with HT29 colon it was 22.5 µM; in the experiment with LOX IMVI melanoma, 30 µM; with MCF7 breast, 33.5 µM; with MOLT-4 leukemia, 37 µM; in the experiment on OVCAR-3 ovarian, 29.8 µM. For the same compound, the TGI with SF-268 CNS came out at 33.5 µM; in the experiment with SF-539 CNS, 29.7 µM; with SNB-19 CNS, 21.5 µM; in the experiment with UO-31 renal, 24.7 µM.
For the compound `CCN(CC)/C(=C\Cl)Nc1ccccn1`, the TGI in the experiment with EKVX NSCLC, with HT29 colon, in the experiment on LOX IMVI melanoma, in the experiment on MOLT-4 leukemia, with OVCAR-3 ovarian and in the experiment on SF-268 CNS was greater than 100 µM throughout. Besides, the TGI in the experiment on SF-539 CNS, in the experiment on SNB-19 CNS and in the experiment with UO-31 renal was greater than 100 µM each time.
Take `C[N+]1(C)C2CCC1CC(OC(=O)C(CO)c1ccccc1)C2` (configuration not stated): the TGI in the experiment on EKVX NSCLC, in the experiment with HT29 colon, in the experiment with LOX IMVI melanoma, with MCF7 breast, with MOLT-4 leukemia and with OVCAR-3 ovarian was greater than 100 µM throughout. Also, the TGI with SF-268 CNS, in the experiment on SF-539 CNS, with SNB-19 CNS and in the experiment on UO-31 renal was greater than 100 µM in each case.
As to `Cc1c2c(cc3c1[nH]c1ccccc13)C(c1ccc(F)cc1)=NCC2`, the TGI in the experiment with EKVX NSCLC was determined as 9.02 µM; with HT29 colon it was 4.2 µM; with LOX IMVI melanoma, 3.02 µM; in the experiment on MCF7 breast, 7.78 µM; with MOLT-4 leukemia, 5.34 µM; with OVCAR-3 ovarian it was 2.93 µM. In addition, the TGI was determined as 19.6 µM in the experiment with SF-268 CNS, 2.77 µM in the experiment with SF-539 CNS, 6.94 µM in the experiment on SNB-19 CNS and 4.08 µM with UO-31 renal.
Consider `NC(=Nc1ccc(Cl)c(Cl)c1)c1ccccc1N`, for which the TGI in the experiment on EKVX NSCLC is greater than 100 µM; in the experiment with HT29 colon, greater than 100 µM; in the experiment with LOX IMVI melanoma it was 69.3 µM; with MCF7 breast it was greater than 100 µM; in the experiment on MOLT-4 leukemia it was 69.3 µM; in the experiment with OVCAR-3 ovarian it was greater than 100 µM. Moreover, the TGI with SF-268 CNS, with SNB-19 CNS and in the experiment on UO-31 renal was greater than 100 µM in each case.
In the case of `O=C1OC(c2ccccc2)=N/C1=C/c1cccs1`, the TGI in the experiment with EKVX NSCLC was greater than 100 µM; with HT29 colon, greater than 100 µM; in the experiment with MCF7 breast, greater than 100 µM; in the experiment with MOLT-4 leukemia it was 41.9 µM; with OVCAR-3 ovarian it was greater than 100 µM; in the experiment on SF-268 CNS, greater than 100 µM. Also, the TGI in the experiment with SF-539 CNS and in the experiment on SNB-19 CNS was greater than 100 µM throughout.
As to `COC1(OC)C[C@H](C)[C@@]23O[C@]24c2cc(O)c5c(c2N[C@H]3C#C/C=C\C#C[C@]14O)C(=O)c1ccccc1C5=O`, the GI50 was 0.0527 µM with EKVX NSCLC; 0.0226 µM with HT29 colon; less than 0.001 µM in the experiment with MOLT-4 leukemia; 0.00193 µM in the experiment with SF-268 CNS; less than 0.001 µM in the experiment on SF-539 CNS. In addition, the TGI was 0.213 µM and 0.202 µM in the experiment on EKVX NSCLC; 0.049 µM in the experiment on LOX IMVI melanoma; less than 0.001 µM in the experiment on MOLT-4 leukemia; 0.77 µM in the experiment with OVCAR-3 ovarian; 0.00304 µM with SF-539 CNS; 0.225 µM with SNB-19 CNS. The compound further showed a TGI with UO-31 renal of 0.0176 µM.
For the compound `O=C1c2ccccc2-c2ccc(O)cc21`, the TGI with EKVX NSCLC was 37.8 µM; in the experiment on HT29 colon it was greater than 100 µM; in the experiment on LOX IMVI melanoma, 97.5 µM; in the experiment with MCF7 breast, 67.2 µM; in the experiment with MOLT-4 leukemia, 44.4 µM; with SF-268 CNS, 47.2 µM. Besides, the TGI in the experiment with SF-539 CNS is 52.8 µM; in the experiment with SNB-19 CNS, 48.7 µM; with UO-31 renal it was 32.1 µM.
Regarding `CO[C@@]12C[C@@H](CNC(=O)c3cc(Br)c[nH]3)O[C@@H]1NC(=O)N2`, the TGI with EKVX NSCLC, in the experiment on HT29 colon, in the experiment with LOX IMVI melanoma, with MCF7 breast, in the experiment on OVCAR-3 ovarian and in the experiment on SF-268 CNS was greater than 100 µM throughout. Further, the TGI in the experiment on SF-539 CNS, in the experiment with SNB-19 CNS and in the experiment on UO-31 renal was greater than 100 µM in each case.
With `O=C1c2scnc2-c2nccc3c2c1nc1ccccc13`, the TGI in the experiment with EKVX NSCLC is greater than 20.2 µM; in the experiment with HT29 colon, greater than 19.9 µM; in the experiment with LOX IMVI melanoma, 0.508 µM; in the experiment on MCF7 breast, 1.03 µM; in the experiment with MOLT-4 leukemia, greater than 100 µM; with OVCAR-3 ovarian, greater than 100 µM. Besides, the figures for the TGI in the experiment with SF-268 CNS, in the experiment on SF-539 CNS and in the experiment on UO-31 renal were greater than 100 µM, 1.54 µM and 2.74 µM, respectively.
In the case of `CN1CCC23c4ccccc4NC1C21CCN(C)C3Nc2ccccc21`, the TGI in the experiment on EKVX NSCLC was greater than 375 µM; in the experiment with HT29 colon it was greater than 375 µM; in the experiment on LOX IMVI melanoma it was greater than 375 µM; in the experiment with MCF7 breast, greater than 375 µM; in the experiment with MOLT-4 leukemia, greater than 165 µM; with OVCAR-3 ovarian it was greater than 375 µM. Further, the TGI in the experiment on SF-539 CNS, with SNB-19 CNS and in the experiment on UO-31 renal was greater than 375 µM each time.
Consider `CC(=O)C1(c2ccccc2)CCCN(C)CC1` (configuration not stated), for which the TGI in the experiment with HT29 colon, with LOX IMVI melanoma, with MCF7 breast, in the experiment with MOLT-4 leukemia, in the experiment with OVCAR-3 ovarian and with SNB-19 CNS was greater than 100 µM each time. Besides, the TGI in the experiment with UO-31 renal was greater than 100 µM.
`Cc1c(N)nc([C@H](CC(N)=O)NC[C@H](N)C(N)=O)nc1C(=O)N[C@H](C(=O)N[C@H](C)[C@@H](O)[C@H](C)C(=O)N[C@H](C(=O)NCCc1nc(-c2nc(C(=O)NCCC[S+](C)C)cs2)cs1)[C@@H](C)O)C(OC1OC(CO)C(O)C(O)C1OC1OC(CO)C(O)C(OC(N)=O)C1O)c1cnc[nH]1` (some centres not stated): the GI50 is 25 µM in the experiment on EKVX NSCLC; 0.0661 µM in the experiment on LOX IMVI melanoma; 1.71 µM and 3.16 µM with MCF7 breast; 0.204 µM and 0.613 µM in the experiment with MOLT-4 leukemia; 2.72 µM and 2.89 µM with SNB-19 CNS. The TGI in the experiment with EKVX NSCLC is 22 µM and 25 µM; in the experiment on HT29 colon, 25 µM and 29 µM and > 100 µM; with LOX IMVI melanoma it was 5.32 µM and 1.89 µM and 1.51 µM; in the experiment with MCF7 breast, 22.5 µM and 25 µM and > 100 µM; in the experiment on MOLT-4 leukemia, 13.1 µM and 2.22 µM and 4.41 µM; with OVCAR-3 ovarian, 29 µM [middle of 4 runs]. The TGI in the experiment on SNB-19 CNS was 23 µM and 25 µM and > 100 µM.
